The text below walks through data of patent US4652638A, “3-O-acyl-4"-deoxydesmycosin derivatives” (Toyo Jozo Kabushiki Kaisha, priority 1983, dated 1987).

≈ marks a conversion by molar mass, not a printed value. Where two headings read alike, the source gives them in different places.

Experiment in all cases: MIC (minimum inhibitory concentration)
Common to all, as to format: cell-based

Assay [1] deals with Pseudomonas aeruginosa IAM 1095. The settings on record: IAM1095; Pseudomonas aeruginosa IAM 1095; read-out: MIC.
Assay [2] has as its system Staphylococcus aureus 0119*.
The subject of assay [3] is Staphylococcus aureus 0127*. The settings on record: Staphylococcus aureus.
Assay [4] deals with Bacillus subtilis ATCC 6633. The settings on record: ATCC6633; Bacillus subtilis ATCC 6633; read-out: MIC.
Assay [5] has as its system Staphylococcus epidermidis sp-al-1. Particulars: SPAL1; Staphylococcus epidermidis sp-al-1; read-out: MIC.
A further assay concerns Shigella sonnei E33.
Assay [6] deals with Staphylococcus aureus MS353 C36. Particulars: MS353C36.
Assay [7] has as its system Micrococcus flavus ATCC 10240. The settings on record: ATCC10240; Micrococcus flavus ATCC 10240; read-out: MIC.
The test system of assay [8] is Streptococcus agalaactiae 1020. The settings on record: Streptococcus agalaactiae 1020; read-out: MIC.
The next assay concerns Salmonella typhosa H901. The settings on record: Salmonella enterica, TYPHOSA.
The test system of assay [9] is Klebsiella pneumoniae ATCC 10031. The settings on record: ATCC10031; Klebsiella pneumoniae ATCC 10031; read-out: MIC.
Assay [10] has as its system Staphylococcus aureus MS353 A0*. The settings on record: * clinical isolate, macrolide-resistant bacteria A group.
The test system of assay [11] is Staphylococcus aureus ATCC 6538P. Particulars: ATCC6538P.
The test system of assay [12] is Streptococcus pyogenes 1022*.
Assay [13] deals with Staphylococcus aureus MS353.
The test system of assay [14] is Streptococcus pyogenes N.Y.5.
For another assay, the system named is Proteus vulgaris OX19. Particulars: read-out: MIC.
Assay [15] has as its system Streptococcus faecalis 1501. The settings on record: Enterococcus faecalis; Streptococcus faecalis 1501; read-out: MIC.
For assay [16], the system named is Shigella flexineri type 3a. The settings on record: TYPE3A.
The subject of assay [17] is Salmonella enteritidis Gaertner. Particulars: Salmonella enterica; Salmonella enteritidis Gaertner; read-out: MIC.
In another assay the test system is Sarcina lutea ATCC 9341. The settings on record: Micrococcus luteus, ATCC9341; Sarcina lutea ATCC 9341; read-out: MIC.
In another assay the test system is Serratia marcescens. The settings on record: read-out: MIC.
Assay [18] deals with Escherichia coli NIHJ-JC2. The settings on record: NIHJJC2; Escherichia coli NIHJ-JC2; read-out: MIC.
Another assay relates to Escherichia coli B. The settings on record: Escherichia coli B; read-out: MIC.
Setting [19] is: Streptococcus pyogenes 1022, * clinical isolate, macrolide-resistant bacteria A group, read-out: MIC.

With `CCC1OC(=O)CC(OC(C)=O)C(C)C(OC2OC(C)C(O)C(N(C)C)C2O)C(CC=O)CC(C)C(=O)C=CC(C)=CC1COC1OC(C)CC(OC)C1OC` (stereo not drawn) [Example 1, 3-O-acetyl-4"-deoxydesmycosin], the MIC in assay [1] is above 100 µg/mL; in assay [2] (Staphylococcus aureus), 100 µg/mL (≈ 125 µM); in assay [3], above 100 µg/mL; in assay [4], 0.2 µg/mL (≈ 0.251 µM); in assay [5] it was 0.1 µg/mL (≈ 0.125 µM); against Shigella sonnei E33 it was above 100 µg/mL. The MIC in assay [6] was 0.2 µg/mL (≈ 0.251 µM); in assay [7], at most 0.05 µg/mL; in [8] it was 0.1 µg/mL (≈ 0.125 µM); with Salmonella typhosa H901, above 100 µg/mL; in assay [9], 25 µg/mL (≈ 31.3 µM); in assay [10], above 100 µg/mL. The MIC was 0.4 µg/mL (≈ 0.501 µM) in assay [11]; 50 µg/mL (≈ 62.7 µM) in assay [12] (setting [19]); 0.2 µg/mL (≈ 0.251 µM) in assay [13]; at most 0.05 µg/mL in assay [14]; 25 µg/mL (≈ 31.3 µM) with Proteus vulgaris OX19; 0.8 µg/mL (≈ 1 µM) in [15]. Besides, the MIC in assay [16] is 50 µg/mL (≈ 62.7 µM); in [17], above 100 µg/mL; with Sarcina lutea ATCC 9341 it was at most 0.05 µg/mL; in the assay on Serratia marcescens, above 100 µg/mL; in [18], above 100 µg/mL; in the assay on Escherichia coli B, above 100 µg/mL.
For `CCC(=O)OC1CC(=O)OC(CC)C(COC2OC(C)CC(OC)C2OC)C=C(C)C=CC(=O)C(C)CC(CC=O)C(OC2OC(C)C(O)C(N(C)C)C2O)C1C` (stereo not drawn) [Example 2, 3-O-propionyl-4"-deoxydesmycosin], the minimal inhibitory concentration (MIC) in assay [1] was 50 µg/mL (≈ 61.6 µM); in assay [2] (Staphylococcus aureus 0119, * clinical isolate, macrolide-resistant bacteria A group, read-out: MIC) it was 25 µg/mL (≈ 30.8 µM); in [3], 12.5 µg/mL (≈ 15.4 µM); in [4] it was 0.1 µg/mL (≈ 0.123 µM); in [5], at most 0.05 µg/mL; with Shigella sonnei E33, above 100 µg/mL. The MIC was 0.2 µg/mL (≈ 0.246 µM) in assay [6]; at most 0.05 µg/mL in [7]; 0.1 µg/mL (≈ 0.123 µM) in [8]; above 100 µg/mL in the assay with Salmonella typhosa H901; 25 µg/mL (≈ 30.8 µM) in assay [9]; 12.5 µg/mL (≈ 15.4 µM) in assay [10]. Moreover, the minimal inhibitory concentration (MIC) in assay [11] is 0.4 µg/mL (≈ 0.493 µM); in assay [12] (Streptococcus pyogenes), 12.5 µg/mL (≈ 15.4 µM); in assay [13], 0.2 µg/mL (≈ 0.246 µM); in assay [14], at most 0.05 µg/mL; with Proteus vulgaris OX19, 50 µg/mL (≈ 61.6 µM); in assay [15] it was 0.4 µg/mL (≈ 0.493 µM). Besides, the MIC is 50 µg/mL (≈ 61.6 µM) in assay [16]; above 100 µg/mL in assay [17]; at most 0.05 µg/mL with Sarcina lutea ATCC 9341; above 100 µg/mL in the assay with Serratia marcescens; above 100 µg/mL in assay [18]; 100 µg/mL (≈ 123 µM) with Escherichia coli B.
For `CCC1OC(=O)CC(OC(=O)c2ccccc2)C(C)C(OC2OC(C)C(O)C(N(C)C)C2O)C(CC=O)CC(C)C(=O)C=CC(C)=CC1COC1OC(C)CC(OC)C1OC` (stereo not drawn) [Example 5, 3-O-benzoyl-4"-deoxydesmycosin], the MIC in assay [1] was above 100 µg/mL; in assay [2] (Staphylococcus aureus) it was above 100 µg/mL; in assay [3], above 100 µg/mL; in [4] it was 0.1 µg/mL (≈ 0.116 µM); in [5] it was 0.1 µg/mL (≈ 0.116 µM); against Shigella sonnei E33, above 100 µg/mL. For the same compound, the minimum inhibitory concentration (MIC) in assay [6] is 0.2 µg/mL (≈ 0.233 µM); in [7], at most 0.05 µg/mL; in assay [8], 0.2 µg/mL (≈ 0.233 µM); against Salmonella typhosa H901, above 100 µg/mL; in assay [9], 25 µg/mL (≈ 29.1 µM); in [10] it was 50 µg/mL (≈ 58.1 µM). Further, the MIC in assay [11] is 0.2 µg/mL (≈ 0.233 µM); in assay [12] (setting [19]), 25 µg/mL (≈ 29.1 µM); in assay [13], 0.2 µg/mL (≈ 0.233 µM); in assay [14] it was at most 0.05 µg/mL; in the assay on Proteus vulgaris OX19, 50 µg/mL (≈ 58.1 µM); in [15], 1.6 µg/mL (≈ 1.86 µM). The MIC in [16] was 100 µg/mL (≈ 116 µM); in assay [17], above 100 µg/mL; in the assay with Sarcina lutea ATCC 9341, at most 0.05 µg/mL; in the assay on Serratia marcescens, above 100 µg/mL; in assay [18], above 100 µg/mL; in the assay with Escherichia coli B, above 100 µg/mL.
Regarding `CCC1OC(=O)CC(OC(C)=O)C(C)C(OC2OC(C)C(O)C(N(C)C)C2O)C(C)CC(C)C(=O)C=CC(C)=CC1COC1OC(C)CC(OC)C1OC` (stereo not drawn) [Example 7, 3-O-acetyl-19-deformyl-4"-deoxydesmycosin], the MIC in [1] is above 100 µg/mL; in [2] (Staphylococcus aureus), above 100 µg/mL; in assay [3] it was above 100 µg/mL; in assay [4], 0.1 µg/mL (≈ 0.13 µM); in assay [5], 0.1 µg/mL (≈ 0.13 µM); against Shigella sonnei E33 it was above 100 µg/mL. Further, the MIC was 0.2 µg/mL (≈ 0.26 µM) in [6]; at most 0.05 µg/mL in assay [7]; 0.8 µg/mL (≈ 1.04 µM) in assay [8]; above 100 µg/mL against Salmonella typhosa H901; 25 µg/mL (≈ 32.5 µM) in assay [9]; above 100 µg/mL in [10]. For the same compound, the MIC in [11] is 0.4 µg/mL (≈ 0.52 µM); in assay [12] (Streptococcus pyogenes), above 100 µg/mL; in [13], 0.2 µg/mL (≈ 0.26 µM); in assay [14] it was 0.1 µg/mL (≈ 0.13 µM); with Proteus vulgaris OX19 it was 100 µg/mL (≈ 130 µM); in assay [15], 3.1 µg/mL (≈ 4.03 µM). The MIC in assay [16] was above 100 µg/mL; in [17] it was above 100 µg/mL; in the assay with Sarcina lutea ATCC 9341, at most 0.05 µg/mL; in the assay on Serratia marcescens it was above 100 µg/mL; in [18] it was above 100 µg/mL; in the assay with Escherichia coli B it was above 100 µg/mL.
For the compound `CCC(=O)OC1CC(=O)OC(CC)C(COC2OC(C)CC(OC)C2OC)C=C(C)C=CC(=O)C(C)CC(C)C(OC2OC(C)C(O)C(N(C)C)C2O)C1C` (stereo not drawn) [Example 8, 3-O-propionyl-19-deformyl-4"-deoxydesmycosin], the MIC in assay [1] was above 100 µg/mL; in assay [2] (Staphylococcus aureus), above 100 µg/mL; in assay [3], above 100 µg/mL; in assay [4] it was 0.1 µg/mL (≈ 0.128 µM); in assay [5] it was 0.1 µg/mL (≈ 0.128 µM); in the assay on Shigella sonnei E33 it was above 100 µg/mL. Also, the minimal inhibitory concentration (MIC) in [6] was 0.2 µg/mL (≈ 0.255 µM); in assay [7], at most 0.05 µg/mL; in assay [8] it was 0.4 µg/mL (≈ 0.51 µM); in the assay with Salmonella typhosa H901 it was above 100 µg/mL; in [9], 12.5 µg/mL (≈ 15.9 µM); in assay [10], above 100 µg/mL. Moreover, the MIC in [11] is 0.4 µg/mL (≈ 0.51 µM); in [12] (Streptococcus pyogenes) it was above 100 µg/mL; in assay [13] it was 0.4 µg/mL (≈ 0.51 µM); in assay [14], 0.1 µg/mL (≈ 0.128 µM); with Proteus vulgaris OX19, 100 µg/mL (≈ 128 µM); in assay [15], 3.1 µg/mL (≈ 3.95 µM). In addition, the minimal inhibitory concentration (MIC) in assay [16] was 100 µg/mL (≈ 128 µM); in assay [17], above 100 µg/mL; in the assay with Sarcina lutea ATCC 9341, at most 0.05 µg/mL; in the assay with Serratia marcescens, above 100 µg/mL; in assay [18] it was above 100 µg/mL; in the assay with Escherichia coli B, 100 µg/mL (≈ 128 µM).
As for `CCC1OC(=O)CC(OC(=O)c2ccccc2)C(C)C(OC2OC(C)C(O)C(N(C)C)C2O)C(C)CC(C)C(=O)C=CC(C)=CC1COC1OC(C)CC(OC)C1OC` (stereo not drawn) [Example 9, 3-O-benzoyl-19-deformyl-4"-deoxydesmycosin], the minimum inhibitory concentration (MIC) is above 100 µg/mL in assay [1]; above 100 µg/mL in [2] (Staphylococcus aureus); above 100 µg/mL in assay [3]; 0.2 µg/mL (≈ 0.24 µM) in assay [4]; at most 0.05 µg/mL in [5]; above 100 µg/mL in the assay with Shigella sonnei E33. For the same compound, the minimal inhibitory concentration (MIC) in assay [6] was 0.1 µg/mL (≈ 0.12 µM); in [7] it was at most 0.05 µg/mL; in assay [8], 0.2 µg/mL (≈ 0.24 µM); with Salmonella typhosa H901, above 100 µg/mL; in assay [9] it was 25 µg/mL (≈ 30 µM); in [10] it was above 100 µg/mL. The minimum inhibitory concentration (MIC) is 0.2 µg/mL (≈ 0.24 µM) in assay [11]; above 100 µg/mL in assay [12] (Streptococcus pyogenes); 0.2 µg/mL (≈ 0.24 µM) in assay [13]; at most 0.05 µg/mL in [14]; 100 µg/mL (≈ 120 µM) with Proteus vulgaris OX19; 1.6 µg/mL (≈ 1.92 µM) in assay [15]. For the same compound, the minimal inhibitory concentration (MIC) was above 100 µg/mL in assay [16]; above 100 µg/mL in [17]; at most 0.05 µg/mL with Sarcina lutea ATCC 9341; above 100 µg/mL in the assay with Serratia marcescens; above 100 µg/mL in assay [18]; above 100 µg/mL in the assay with Escherichia coli B.
